Assay [1] deals with CCRF-CEM. The experiment in a line: Cytotoxicity against folyl-poly-glutamate synthetase-deficient human CCRF-CEM cells in absence of thymidine and hypoxanthine.
Assay [2] has as its system CCRF-CEM. The experiment in a line: Cytotoxicity against human CCRF-CEM cells in absence of thymidine and hypoxanthine.
The target in assay [3] is Bifunctional purine biosynthesis protein ATIC (Homo sapiens, UniProt P31939). The experiment in a line: Inhibition of human recombinant AICAR transformylase.
Chain of Bifunctional purine biosynthesis protein ATIC (P31939 whole entry): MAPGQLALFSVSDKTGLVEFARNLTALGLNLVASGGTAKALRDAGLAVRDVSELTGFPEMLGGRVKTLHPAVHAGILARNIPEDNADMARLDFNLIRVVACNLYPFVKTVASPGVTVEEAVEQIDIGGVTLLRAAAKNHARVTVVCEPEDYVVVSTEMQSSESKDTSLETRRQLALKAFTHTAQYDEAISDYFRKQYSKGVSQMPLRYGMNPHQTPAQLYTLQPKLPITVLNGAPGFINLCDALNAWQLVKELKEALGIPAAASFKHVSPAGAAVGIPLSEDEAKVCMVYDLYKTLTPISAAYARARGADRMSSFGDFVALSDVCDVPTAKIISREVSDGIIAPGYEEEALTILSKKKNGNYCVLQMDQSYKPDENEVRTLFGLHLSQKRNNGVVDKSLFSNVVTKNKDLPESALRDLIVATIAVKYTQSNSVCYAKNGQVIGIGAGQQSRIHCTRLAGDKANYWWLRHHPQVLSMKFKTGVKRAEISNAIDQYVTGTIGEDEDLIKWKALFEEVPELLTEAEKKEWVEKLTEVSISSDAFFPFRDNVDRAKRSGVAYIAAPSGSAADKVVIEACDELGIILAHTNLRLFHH
Assay [4] relates to CCRF-CEM. The experiment in a line: Cytotoxicity against human CCRF-CEM cells in presence of thymidine and absence of hypoxanthine.
The test system of assay [5] is CCRF-CEM. The experiment in a line: Cytotoxicity against human CCRF-CEM cells in absence of thymidine and presence of hypoxanthine.
The subject of assay [6] is CCRF-CEM. The experiment in a line: Cytotoxicity against human CCRF-CEM cells expressing reduced folate carrier in absence of thymidine and hypoxanthine.
Assay [7] deals with T1, Trifunctional purine biosynthetic protein adenosine-3 (Homo sapiens, UniProt P22102).
T1 sequence (P22102 whole entry): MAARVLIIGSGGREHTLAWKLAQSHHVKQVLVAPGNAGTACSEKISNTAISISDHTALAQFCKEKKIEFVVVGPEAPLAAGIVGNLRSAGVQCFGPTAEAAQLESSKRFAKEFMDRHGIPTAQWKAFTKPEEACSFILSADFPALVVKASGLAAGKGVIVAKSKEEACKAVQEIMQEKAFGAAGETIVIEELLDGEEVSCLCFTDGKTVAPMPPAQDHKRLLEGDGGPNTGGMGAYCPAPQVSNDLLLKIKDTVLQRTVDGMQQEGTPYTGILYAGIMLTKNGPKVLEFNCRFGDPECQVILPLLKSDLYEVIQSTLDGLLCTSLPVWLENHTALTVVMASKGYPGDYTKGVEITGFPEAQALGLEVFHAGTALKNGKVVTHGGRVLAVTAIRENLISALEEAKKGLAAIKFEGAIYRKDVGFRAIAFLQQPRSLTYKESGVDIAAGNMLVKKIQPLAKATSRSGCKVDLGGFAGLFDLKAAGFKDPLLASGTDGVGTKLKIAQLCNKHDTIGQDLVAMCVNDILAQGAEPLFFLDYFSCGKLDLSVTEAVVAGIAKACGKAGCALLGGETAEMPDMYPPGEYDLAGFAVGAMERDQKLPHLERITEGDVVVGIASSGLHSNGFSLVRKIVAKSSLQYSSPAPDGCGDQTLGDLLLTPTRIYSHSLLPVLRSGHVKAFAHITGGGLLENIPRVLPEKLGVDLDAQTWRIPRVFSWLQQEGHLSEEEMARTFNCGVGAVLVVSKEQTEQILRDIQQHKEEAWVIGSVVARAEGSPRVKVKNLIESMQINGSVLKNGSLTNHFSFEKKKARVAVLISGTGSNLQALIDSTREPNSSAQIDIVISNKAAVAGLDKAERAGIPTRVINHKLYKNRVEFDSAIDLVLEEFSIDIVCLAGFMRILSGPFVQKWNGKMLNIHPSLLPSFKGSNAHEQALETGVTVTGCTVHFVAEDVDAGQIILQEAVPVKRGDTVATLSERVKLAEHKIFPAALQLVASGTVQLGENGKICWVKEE
Kind of assay: Inhibition of human recombinant GAR transformylase.

Molecules are shown by their SMILES. pIC50, pKi: −log10 of the molar value.

Usually pIC50 stands for the negative decadic logarithm of the IC50, by convention in mol/L. The pKi is the Ki on a negative log10 scale, so that one unit is a factor of ten.

Take `Nc1nc(N)c(CCCC(C(=O)C(F)(F)F)c2ccc(C(=O)N[C@@H](CCC(=O)O)C(=O)O)cc2)c(=O)[nH]1` (some centres not stated): the pIC50 in the assay on CCRF-CEM [1] is less than 5.00; in the assay with CCRF-CEM [2], 7.80; in the assay with CCRF-CEM [4] it was 7.77; with CCRF-CEM [5] it was less than 5.00. The negative-log Ki (pKi) in assay [3] is less than 4.00.

Turning to `CS[C@@H](CCCc1c(N)nc(N)[nH]c1=O)c1ccc(C(=O)N[C@@H](CCC(=O)O)C(=O)O)cc1`, the pIC50 in the assay with CCRF-CEM [1] was 5.30; with CCRF-CEM [6], 7.22; in the assay with CCRF-CEM [2], 7.30; in the assay with CCRF-CEM [4], 7.15; with CCRF-CEM [5], less than 5.00. Besides, the negative-log Ki (pKi) in assay [3] was less than 4.00.

Regarding `CO[C@H](CCCc1c(N)nc(N)[nH]c1=O)c1ccc(C(=O)N[C@@H](CCC(=O)O)C(=O)O)cc1`, the pIC50 was 5.22 in the assay on CCRF-CEM [1]; 6.22 in the assay with CCRF-CEM [6]; 6.30 in the assay with CCRF-CEM [2]; 6.15 with CCRF-CEM [4]; less than 5.00 in the assay on CCRF-CEM [5]. Further, the pKi in assay [3] was less than 4.00.

On to `Nc1nc(N)c(CCCC2(c3ccc(C(=O)N[C@@H](CCC(=O)O)C(=O)O)cc3)SCCCS2)c(=O)[nH]1`, for which the pIC50 in the assay with CCRF-CEM [2] was less than 4.00; in the assay with CCRF-CEM [4], less than 4.00; in the assay on CCRF-CEM [5] it was less than 5.00. The pKi in assay [3] was 4.70.

In the case of `Nc1nc(N)c(CCC[C@@H](O)c2ccc(C(=O)N[C@@H](CCC(=O)O)C(=O)O)cc2)c(=O)[nH]1`, the pIC50 was less than 5.00 with CCRF-CEM [1], 5.62 in the assay on CCRF-CEM [2], 5.24 in the assay with CCRF-CEM [4] and less than 5.00 in the assay with CCRF-CEM [5]. The negative logarithm of the Ki (pKi) in assay [3] was less than 4.00; in assay [7], 5.96.

Take `CS[C@H](CCCc1c(N)nc(N)[nH]c1=O)c1ccc(C(=O)N[C@@H](CCC(=O)O)C(=O)O)cc1`: the pIC50 in the assay on CCRF-CEM [1] was 5.26; with CCRF-CEM [6], 7.15; in the assay with CCRF-CEM [2], 7.10; with CCRF-CEM [4] it was 7.10; in the assay with CCRF-CEM [5] it was less than 5.00. The pKi in assay [3] is less than 4.00.

For `Nc1nc(N)c(CCC[C@H](O)c2ccc(C(=O)N[C@@H](CCC(=O)O)C(=O)O)cc2)c(=O)[nH]1`, the pIC50 in the assay on CCRF-CEM [1] and in the assay on CCRF-CEM [5] was less than 5.00 throughout. Also, the negative logarithm of the Ki (pKi) in assay [3] is less than 4.00.

Consider `CO[C@@H](CCCc1c(N)nc(N)[nH]c1=O)c1ccc(C(=O)N[C@@H](CCC(=O)O)C(=O)O)cc1`, for which the negative-log IC50 (pIC50) with CCRF-CEM [1] was less than 5.00; in the assay with CCRF-CEM [6] it was 6.05; in the assay on CCRF-CEM [2] it was 6.15; with CCRF-CEM [4], 6.05; in the assay on CCRF-CEM [5], less than 5.00. Also, the pKi in assay [3] was less than 4.00.

In the case of `Nc1nc(N)c(CCCCc2ccc(C(=O)N[C@@H](CCC(=O)O)C(=O)O)cc2)c(=O)[nH]1` [DIDEAZAACYCLOTETRAHYDROFOLIC ACID], the pIC50 in the assay with CCRF-CEM [1] is less than 5.00; in the assay with CCRF-CEM [6], less than 4.00; with CCRF-CEM [2] it was 5.57; in the assay on CCRF-CEM [4] it was 5.44; in the assay with CCRF-CEM [5], less than 5.00. In addition, the pKi in assay [3] was 4.70.

As for `Nc1nc2c(c(=O)[nH]1)C[C@@H](CCc1ccc(C(=O)N[C@@H](CCC(=O)O)C(=O)O)cc1)CN2` [LOMETREXOL], the pIC50 is less than 5.00 in the assay with CCRF-CEM [1], less than 4.00 in the assay with CCRF-CEM [6] and less than 5.00 in the assay on CCRF-CEM [5]. Besides, the pKi in assay [3] is less than 4.00.

The record behind these values is ChEMBL document CHEMBL1157354, “Asymmetric synthesis of inhibitors of glycinamide ribonucleotide transformylase” (J Med Chem, 2008).
